Data taken from US11479587B2, “Cationic intrinsically disordered antimicrobial peptides” (priority 2016, dated 2022).
In brackets after ≈: the same amount, converted by molar mass. Several values for one entry are separate records, joined by “and”; a condition that tells them apart may be missing. Equal values may be shown once. Residues, ends and D or L forms follow the SMILES beside them.

Tests used:
[1] = test system: multidrug-resistant K. pneumoniae ATCC 700603; type: cell-based, Klebsiella pneumoniae
Procedure: The Gram-negative opportunistic pathogen K. pneumoniae is responsible for a spectrum of community-acquired and nosocomial infections and typically infects patients with indwelling medical devices, on which this microorganism is able to grow as a biofilm.
A sample of each culture was then diluted 40-fold in fresh broth and incubated at 37° C. for 1.5-3 h. […] All the plates were covered and incubated at 37° C. for 18 h.
(§1) Inhibition of bacterial growth was determined using resazurin as a marker for cell viability. Resazurin was added to each well, at 0.001% final concentration, and plates incubated at 37° C. for 2 h. Fluorescence intensity was measured, using F (top read), ex 560/10 nm, em 590/10 nm, using a Tecan M1000 Pro monochromator plate reader.

C. albicans ATCC 928 = conditions: for MIC, C. albicans ATCC 90028: ATCC 928; for MIC: ATCC 928, 18 h, pH 7.4
[2] = test system: methicillin-resistant S. aureus strain (ATCC 43300); type: cell-based, Staphylococcus aureus; conditions: ATCC 43300, 18 h
[3] = Cytotoxicity (resazurin) assay
Summary of the method: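 CC50 values were derived by fitting concentration-dependent percentage cytotoxicity to a dose–response function. The read-out was resazurin fluorescence (ex 560, em 590 nm; 100 μM, 3 h) after 20 h compound treatment of HEK293 cells at 37 °C in DMEM with 10% FBS.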

E. coli ATCC 25922 = type: cell-based, Escherichia coli; conditions: ATCC 25922, 2 h
Procedure: as §1

Hemolysis assay = type: cell-based; conditions: for HC50 at 1 h: human, washed erythrocytes from EDTA-blood, pH 7.4
Summary of the method: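 Washed EDTA-blood erythrocytes in 5% PBS, pH 7.4, were rotated 1 h at 37° C with peptides at 0, 3, 10, 30, 60 μm. Hemoglobin release read at 540 nm as % of 0.1% Triton X-100 hemolysis; CC50 from dose-response curve of triplicates.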

A. baumannii ATCC 19606 = type: cell-based, Acinetobacter baumannii; conditions: ATCC 19606, 2 h
Procedure: as §1

P. aeruginosa ATCC 27853 = type: cell-based, Pseudomonas aeruginosa; conditions: ATCC 27853, 2 h
Procedure: as §1

[4] = test system: Staphylococcus epidermidis ATCC 14990; assay: CFU-assay, antimicrobial activity spectrum; type: cell-based; conditions: pH 5.5, 0.25% glucose
[5] = test system: Escherichia coli ATCC11775; assay: CFU-assay, antimicrobial activity spectrum; type: cell-based
[6] = test system: Streptococcus pneumoniae ATCC 33400; assay: CFU-assay, antimicrobial activity spectrum; type: cell-based; conditions: pH 7.3, 0.25% glucose
S. aureus ATCC 6538 = assay: CFU-assay, S. aureus-cidal activity; type: cell-based, Staphylococcus aureus
Summary of the method: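 Bactericidal CFU-assay in nutrient-deficient 10 mM sodium phosphate buffer pH 5.5 with 0.25% glucose, counting surviving colonies across twofold peptide dilutions from 300 μg/ml to 19 ng/ml. Output is minimal bactericidal concentration (e.g. MBC90, MBC100); some peptides also tested at pH 7.0.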

[7] = test system: Burkholderia cepacia ATCC 25416; assay: CFU-assay, Burkholderia cepacia-cidal activity; type: cell-based
[8] = test system: Klebsiella pneumoniae ATCC 13883; assay: CFU-assay, Klebsiella pneumoniae-cidal activity; type: cell-based
P. aeruginosa ATCC 10145 = assay: CFU-assay, P. aeruginosa-cidal activity; type: cell-based, Pseudomonas aeruginosa
[9] = test system: Salmonella typhimurium ATCC 13311; assay: CFU-assay, antimicrobial activity spectrum; type: cell-based
[10] = test system: Streptococcus pyogenes ATCC 12344; assay: CFU-assay, antimicrobial activity spectrum; type: cell-based
[11] = test system: E. coli ribosomal proteins; assay: Immunodotblot binding to HPLC-separated ribosomal proteins; conditions: 10 μg/ml, 4° C. overnight, dot blot
Text: The question whether CIDAMP-dependent morphological changes in bacteria are direct or indirect was addressed by testing the hypothesis that CIDAMPs directly bind to ribosomes and ribosomal proteins. For this purpose, ribosomes of E. coli were separated and partially purified by SulfoLink®-coupling resin-chromatography (Maguire et al., 2008, RNA, 14, 188-195) followed by reversed phase high performance liquid chromatography (HPLC) using an Aeris 3.6 μm C18 widepore RP-HPLC column (Phenomenex) and an increasing gradient of acetonitrile (ACN, max.: 80% v/v) in aqueous 0.1% trifluoroacetic acid.
Aliquots of each HPLC fraction were lyophilized, the residues dissolved in 5 μl water each and then applied to a nitrocellulose membrane. After blocking with 5% bovine serum albumin in PBS and washing with PBS, biotinylated rhHRNR2591-2694, a 103 amino acid fragment of hornerin, (10 μg/ml) was added and incubated at 4° C. overnight. After 4-times washing, Strep-Tactin® (1:200; iba lifescience) in PBS was added, incubated for 1 h and then, after 6 times washing with PBS, substrate was added and the blots developed.

[12] = standard conditions at pH 7.4, activity at concentration <32 pg/ml

CCCCCCCCCCCCCCCC(=O)NCC(=O)N[C@H](CCCNC(=N)N)C(=O)N[C@H](CCCNC(=N)N)C(=O)NCC(=O)NCC(=O)N[C@H](CCCNC(=N)N)C(=O)NCC(=O)NCC(=O)N[C@H](CCCNC(=N)N)C(=O)NCC(=O)N[C@H](CCCNC(=N)N)C(=O)NCC(=O)N[C@H](CCCNC(=N)N)C(=O)O [D-Pal-GR13] (HELM PEPTIDE1{[CCCCCCCCCCCCCCCC(=O)[*:2]].G.[dR].[dR].G.G.[dR].G.G.[dR].G.[dR].G.[dR]}$$$$V2.0)
MIC, K. pneumoniae ATCC 700603 [1]: ≥32 µg/mL | MIC, C. albicans ATCC 90028 (C. albicans ATCC 928): ≥8 µg/mL | MIC, S. aureus ATCC 43300 [2]: ≥2 µg/mL | CC50 [3]: > 32 µg/mL and > 20.1 µM | MIC, E. coli ATCC 25922 (E. coli ATCC 25922): ≥8 µg/mL | HC50 (Hemolysis assay): 65 µg/mL | HC50 at 1 h (Hemolysis assay): 24.5 µM | MIC, A. baumannii ATCC 19606 (A. baumannii ATCC 19606): ≥8 µg/mL | MIC, C. neoformans ATCC 208821 (C. neoformans): ≥2 µg/mL | MIC, P. aeruginosa ATCC 27853 (P. aeruginosa ATCC 27853): ≥16 µg/mL

CCCCCCCCCCCCCCCC(=O)N[C@@H](CO)C(=O)N[C@@H](Cc1c[nH]cn1)C(=O)N[C@@H](Cc1c[nH]cn1)C(=O)N[C@@H](CCCNC(=N)N)C(=O)N[C@@H](CS)C(=O)N[C@@H](CS)C(=O)N[C@@H](CCCNC(=N)N)C(=O)N[C@@H](CO)C(=O)N[C@@H](Cc1c[nH]cn1)C(=O)N[C@@H](CCCNC(=N)N)C(=O)N[C@@H](CS)C(=O)N[C@@H](CCCNC(=N)N)C(=O)N[C@@H](CCCNC(=N)N)C(=O)O [Pal-LCE3B56-68] (HELM PEPTIDE1{[CCCCCCCCCCCCCCCC(=O)[*:2]].S.H.H.R.C.C.R.S.H.R.C.R.R}$$$$V2.0)
MBC90 [4]: 0.3 µg/mL (≈ 0.155 µM) | MBC100 [4]: 0.3 µg/mL (≈ 0.155 µM) | MBC90 ([5]; pH 5.5, 0.25% glucose): 0.3 µg/mL (≈ 0.155 µM) | MBC90 ([5]; pH 7.3, 0.25% glucose): 0.59 µg/mL (≈ 0.305 µM) | MBC100 ([5]; pH 7.3, 0.25% glucose): 1.18 µg/mL (≈ 0.611 µM) | MIC, C. albicans ATCC 90028 (C. albicans ATCC 928): ≥1 µg/mL | MIC (C. albicans ATCC 928): 1 to 32 µg/mL | Antifungal activity, C. albcans ATCC90028 (C. albicans ATCC 928; [12]): A (A-active) | MBC90 [6]: 0.59 µg/mL (≈ 0.305 µM) | MBC100 [6]: 2.35 µg/mL (≈ 1.22 µM) | MIC, S. aureus ATCC 43300 [2]: ≥16 µg/mL | S. aureus MBC90 (S. aureus ATCC 6538; pH 5.5): 0.011 µM | S. aureus MBC100 (S. aureus ATCC 6538; pH 5.5): 0.078 µM | MBC90 (S. aureus ATCC 6538; pH 5.5, 0.25% glucose): <0.019 µg/mL | MBC100 (S. aureus ATCC 6538; pH 5.5, 0.25% glucose): 0.15 µg/mL (≈ 0.0776 µM) | CC50 [3]: > 32 µg/mL and > 16.6 µM | CC50 (Hemolysis assay): > 100 µg/mL | HC50 at 1 h (Hemolysis assay): > 78 µM | MBC90 ([7]; pH 5.5, 0.25% glucose): >300 µg/mL | MBC100 ([7]; pH 5.5, 0.25% glucose): >300 µg/mL | MB100 ([7]; pH 7.3): 4.9 µM | MBC90 ([7]; pH 7.3): 2.4 µM | MBC90 ([7]; pH 7.3, 0.25% glucose): 4.7 µg/mL | MBC100 ([7]; pH 7.3, 0.25% glucose): 9.38 µg/mL (≈ 4.85 µM) | MBC100 ([7]; pH 7.3, 0.25% glucose, listed as palmitoyl-LCE3B56-68): 9.375 µg/mL (≈ 4.85 µM) | MBC90 ([8]; pH 5.5): 52 nM | MBC100 ([8]; pH 5.5): 4.9 µM | MBC90 ([8]; pH 5.5, 0.25% glucose): 0.15 µg/mL | MBC100 ([8]; pH 5.5, 0.25% glucose): 9.375 µg/mL | MBC90 ([8]; pH 7.3, 0.25% glucose): 2.35 µg/mL | MBC100 ([8]; pH 7.3, 0.25% glucose): 4.7 µg/mL | P. aeruginosa MBC90 (P. aeruginosa ATCC 10145; pH 5.5): 0.088 µM | P. aeruginosa MBC100 (P. aeruginosa ATCC 10145; pH 5.5): 0.176 µM | MBC90 (P. aeruginosa ATCC 10145; pH 5.5, 0.25% glucose): 0.075 µg/mL (≈ 0.0388 µM) | MBC100 (P. aeruginosa ATCC 10145; pH 5.5, 0.25% glucose): 0.3 µg/mL (≈ 0.155 µM) | MBC90 ([9]; pH 5.5): 20 nM | MBC100 ([9]; pH 5.5): 155 nM | MBC90 ([9]; pH 5.5, 0.25% glucose): 0.038 µg/mL | MBC100 ([9]; pH 5.5, 0.25% glucose): 0.3 µg/mL | MBC90 ([9]; pH 7.3, 0.25% glucose): 1.18 µg/mL | MBC100 ([9]; pH 7.3, 0.25% glucose): 2.35 µg/mL | MIC, C. neoformans ATCC 208821 (C. neoformans): ≥0.25 µg/mL | Antifungal activity, C. neoformans ATCC 208821 (C. neoformans; [12]): A (A-active) | MBC90 ([10]; pH 6.0, 0.25% glucose): 0.15 µg/mL (≈ 0.0776 µM) | MBC100 ([10]; pH 6.0, 0.25% glucose): 0.59 µg/mL (≈ 0.305 µM) | MBC90 ([10]; pH 7.3, 0.25% glucose): 0.15 µg/mL (≈ 0.0776 µM) | MBC100 ([10]; pH 7.3, 0.25% glucose): 0.3 µg/mL (≈ 0.155 µM)

CCCCCCCCCCCCCCCC(=O)NCC(=O)N[C@@H](CCCNC(=N)N)C(=O)N[C@@H](CCCNC(=N)N)C(=O)NCC(=O)NCC(=O)N[C@@H](CCCNC(=N)N)C(=O)NCC(=O)NCC(=O)N[C@@H](CCCNC(=N)N)C(=O)NCC(=O)N[C@@H](CCCNC(=N)N)C(=O)NCC(=O)N[C@@H](CCCNC(=N)N)C(=O)O [Pal-GR13] (HELM PEPTIDE1{[CCCCCCCCCCCCCCCC(=O)[*:2]].G.R.R.G.G.R.G.G.R.G.R.G.R}$$$$V2.0)
MIC, K. pneumoniae ATCC 700603 [1]: ≥16 µg/mL | MIC, C. albicans ATCC 90028 (C. albicans ATCC 928): ≥4 µg/mL | MIC (C. albicans ATCC 928): 1 to 32 µg/mL | MIC, S. aureus ATCC 43300 [2]: ≥0.25 µg/mL | CC50 [3]: > 32 µg/mL and > 20.1 µM | MIC, E. coli ATCC 25922 (E. coli ATCC 25922): ≥4 µg/mL | HC50 (Hemolysis assay): 100 µg/mL | HC50 at 1 h (Hemolysis assay): 62 µM | MIC, A. baumannii ATCC 19606 (A. baumannii ATCC 19606): ≥2 µg/mL | MIC, C. neoformans ATCC 208821 (C. neoformans): ≥0.25 µg/mL | MIC, P. aeruginosa ATCC 27853 (P. aeruginosa ATCC 27853): ≥8 µg/mL

B1: biotinylated rhHRNR2591-2694: biotinylated rhHRNR2591-2694, a 103 amino acid fragment of hornerin (protein)
chain: SQHGSGSGHSSGYGQHGSRSGQSSRGERHGSSSGSSSHYGQHGSGSRQSSGHGRQGSGSGQSPSRGRHGSGLGHSSSHGQHGSGSGRSSSRGPYESRLGHSSVF
modifications: biotinylated (position not given)
notes: biotinylated rhHRNR2591-2694, a 103 amino acid fragment of hornerin
binding to ribosomal proteins (in words) [11]: specific binding
